Assay results taken from US20250019503A1, “METAL COMPLEXED CYANURATE GERMICIDAL ADDITIVE FOR POLYMER COMPOSITIONS” (SABIC Global Technologies B.V., priority 2022, published 2025).

| Compound | hygroscopicity (based on lack of mass loss between 55° C. to 133° C.) | most extensive mass loss (at 240° C. to 300° C., attributed to pyrolysis/oxidations) [%] | mass loss (between 55° C. to 100° C., nitrogen and air, attributed to absorbed water) |
| --- | --- | --- | --- |
| O=c1[n-]c(=O)n(Cl)c(=O)n1Cl.O=c1[n-]c(=O)n(Cl)c(=O)n1Cl.O=c1[n-]c(=O)n(Cl)c(=O)n1Cl.O=c1[n-]c(=O)n(Cl)c(=O)n1Cl.[Cu+2].[Na+].[Na+] [CuDCC, Copper Dichlorocyanurate] | not hydroscopic | – | – |
| O=c1nc([O-])n(Cl)c(=O)n1Cl.[Na+] [NaDCC, sodium dichlorocyanurate] | – | ~40 | around 7% |
